Results as given in ChEMBL document CHEMBL1153306, “Relation between lipophilicity of alkyl gallates and antifungal activity against yeasts and filamentous fungi” (Bioorg Med Chem Lett, 2009).
In brackets after ≈: the same amount, converted by molar mass.

Legend:
Assay type in all cases: functional
Candida albicans = test: Antifungal activity against Candida albicans after 48 hrs by broth microdilution technique
Candida tropicalis = test: Antifungal activity against Candida tropicalis after 48 hrs by broth microdilution technique
Saccharomyces cerevisiae = test: Antifungal activity against Saccharomyces cerevisiae after 48 hrs by broth microdilution technique
Cryptococcus neoformans = test: Antifungal activity against Cryptococcus neoformans after 48 hrs by broth microdilution technique
Aspergillus fumigatus = test: Antimicrobial activity against Aspergillus fumigatus after 48 hrs by broth microdilution technique
Aspergillus flavus = test: Antimicrobial activity against Aspergillus flavus after 48 hrs by broth microdilution technique
Aspergillus niger = test: Antimicrobial activity against Aspergillus niger after 48 hrs by broth microdilution technique
Nannizzia gypsea = test: Antimicrobial activity against Microsporum gypseum after 48 hrs by broth microdilution technique
Epidermophyton floccosum = test: Antimicrobial activity against Epidermophyton floccosum after 48 hrs by broth microdilution technique
Trichophyton rubrum = test: Antimicrobial activity against Trichophyton rubrum after 48 hrs by broth microdilution technique
[1] = tested on: Trichophyton mentagrophytes; test: Antimicrobial activity against Trichophyton mentagrophytes after 48 hrs by broth microdilution technique

| SMILES | MIC (Candida albicans) | MIC (Candida tropicalis) | MIC (Saccharomyces cerevisiae) | MIC (Cryptococcus neoformans) | MIC (Aspergillus fumigatus) | MIC (Aspergillus flavus) | MIC (Aspergillus niger) | MIC (Nannizzia gypsea) | MIC (Epidermophyton floccosum) | MIC (Trichophyton rubrum) | MIC [1] |
| --- | --- | --- | --- | --- | --- | --- | --- | --- | --- | --- | --- |
| CC(=O)Oc1cc(C(=O)O)cc(OC(C)=O)c1OC(C)=O [3,4,5-TRIACETOXYBENZOIC ACID] | > 250 µg/mL | > 250 µg/mL | > 250 µg/mL | > 250 µg/mL | > 250 µg/mL | > 250 µg/mL | > 250 µg/mL | > 250 µg/mL | > 250 µg/mL | > 250 µg/mL | > 250 µg/mL |
| COc1cc(C(=O)O)cc(OC)c1OC [3,4,5-TRIMETHOXYBENZOIC ACID] | > 250 µg/mL | > 250 µg/mL | > 250 µg/mL | > 250 µg/mL | > 250 µg/mL | > 250 µg/mL | > 250 µg/mL | > 250 µg/mL | > 250 µg/mL | > 250 µg/mL | > 250 µg/mL |
| C[C@@H]1[C@H](O)[C@@H](C)/C=C/C=C/C=C/C=C/C=C/C=C/C=C/[C@H](O[C@@H]2O[C@H](C)[C@@H](O)[C@H](N)[C@@H]2O)C[C@@H]2O[C@](O)(C[C@@H](O)C[C@@H](O)[C@H](O)CC[C@@H](O)C[C@@H](O)CC(=O)O[C@H]1C)C[C@H](O)[C@H]2C(=O)O [AMPHOTERICIN B] | 0.78 µg/mL (≈ 0.844 µM) | 0.5 µg/mL (≈ 0.541 µM) | 0.5 µg/mL (≈ 0.541 µM) | 0.25 µg/mL (≈ 0.271 µM) | 0.5 µg/mL (≈ 0.541 µM) | 0.5 µg/mL (≈ 0.541 µM) | 0.5 µg/mL (≈ 0.541 µM) |  |  |  |  |
| CCCCOC(=O)c1cc(O)c(O)c(O)c1 [BUTYL GALLATE] | > 250 µg/mL | > 250 µg/mL | > 250 µg/mL | > 250 µg/mL | > 250 µg/mL | > 250 µg/mL | > 250 µg/mL | 50 µg/mL (≈ 221 µM) | 100 µg/mL (≈ 442 µM) | 50 µg/mL (≈ 221 µM) | 100 µg/mL (≈ 442 µM) |
| CCCCCCCCCCOC(=O)c1cc(O)c(O)c(O)c1 [DECYL GALLATE] | 100 µg/mL (≈ 322 µM) | 100 µg/mL (≈ 322 µM) | 100 µg/mL (≈ 322 µM) | 50 µg/mL (≈ 161 µM) | 100 µg/mL (≈ 322 µM) | > 250 µg/mL | > 250 µg/mL | 50 µg/mL (≈ 161 µM) | 25 µg/mL (≈ 80.5 µM) | 12.5 µg/mL (≈ 40.3 µM) | 50 µg/mL (≈ 161 µM) |
| CCCCCCCCCCCCOC(=O)c1cc(O)c(O)c(O)c1 [DODECYL GALLATE] | > 250 µg/mL | > 250 µg/mL | > 250 µg/mL | > 250 µg/mL | > 250 µg/mL | > 250 µg/mL | > 250 µg/mL | 100 µg/mL (≈ 295 µM) |  | 50 µg/mL (≈ 148 µM) | 50 µg/mL (≈ 148 µM) |
| CCOC(=O)c1cc(O)c(O)c(O)c1 [ETHYLGALLATE] | > 250 µg/mL | > 250 µg/mL | > 250 µg/mL | > 250 µg/mL | > 250 µg/mL | > 250 µg/mL | > 250 µg/mL | 100 µg/mL (≈ 505 µM) | 100 µg/mL (≈ 505 µM) | 100 µg/mL (≈ 505 µM) | 100 µg/mL (≈ 505 µM) |
| CCOC(=O)c1cc(OC)c(OC)c(OC)c1 [ETHYLTRIMETHOXY BENZOATE] | > 250 µg/mL | > 250 µg/mL | > 250 µg/mL | > 250 µg/mL | > 250 µg/mL | > 250 µg/mL | > 250 µg/mL | > 250 µg/mL | > 250 µg/mL | > 250 µg/mL | > 250 µg/mL |
| COC(=O)c1cc(O)c(O)c(O)c1 [GALLIC ACID METHYL ESTER] | > 250 µg/mL | > 250 µg/mL | > 250 µg/mL | > 250 µg/mL | > 250 µg/mL | > 250 µg/mL | > 250 µg/mL | 100 µg/mL (≈ 543 µM) | 100 µg/mL (≈ 543 µM) | 100 µg/mL (≈ 543 µM) | 100 µg/mL (≈ 543 µM) |
| O=C(O)c1cc(O)c(O)c(O)c1 [GALLIC ACID] | > 250 µg/mL | > 250 µg/mL | > 250 µg/mL | > 250 µg/mL | > 250 µg/mL | > 250 µg/mL | > 250 µg/mL | > 250 µg/mL | 100 µg/mL (≈ 588 µM) | 100 µg/mL (≈ 588 µM) | 125 µg/mL (≈ 735 µM) |
| CCCCCCCOC(=O)c1cc(O)c(O)c(O)c1 [HEPTYL GALLATE] | 100 µg/mL (≈ 373 µM) | 100 µg/mL (≈ 373 µM) | 100 µg/mL (≈ 373 µM) | 62.5 µg/mL (≈ 233 µM) | 100 µg/mL (≈ 373 µM) | 100 µg/mL (≈ 373 µM) | 100 µg/mL (≈ 373 µM) | 6.25 µg/mL (≈ 23.3 µM) | 6.25 µg/mL (≈ 23.3 µM) | 6.25 µg/mL (≈ 23.3 µM) | 12.5 µg/mL (≈ 46.6 µM) |
| CCCCCCCCCCCCCCCCOC(=O)c1cc(O)c(O)c(O)c1 [HEXADECYL GALLATE] | > 250 µg/mL | > 250 µg/mL | > 250 µg/mL | > 250 µg/mL | > 250 µg/mL | > 250 µg/mL | > 250 µg/mL | 250 µg/mL (≈ 634 µM) |  | 250 µg/mL (≈ 634 µM) | 125 µg/mL (≈ 317 µM) |
| CCCCCCOC(=O)c1cc(O)c(O)c(O)c1 [HEXYL GALLATE] | > 250 µg/mL | > 250 µg/mL | > 250 µg/mL | > 250 µg/mL | > 250 µg/mL | > 250 µg/mL | > 250 µg/mL | 25 µg/mL (≈ 98.3 µM) | 25 µg/mL (≈ 98.3 µM) | 25 µg/mL (≈ 98.3 µM) | 25 µg/mL (≈ 98.3 µM) |
| CC(=O)N1CCN(c2ccc(OCC3COC(Cn4ccnc4)(c4ccc(Cl)cc4Cl)O3)cc2)CC1 (configuration not stated) [KETOCONAZOLE] | 1.56 µg/mL (≈ 2.94 µM) | 0.125 µg/mL (≈ 0.235 µM) | 3.12 µg/mL (≈ 5.87 µM) | 0.39 µg/mL (≈ 0.734 µM) | 0.78 µg/mL (≈ 1.47 µM) | 0.78 µg/mL (≈ 1.47 µM) | 1.56 µg/mL (≈ 2.94 µM) |  |  |  |  |
| CCCCCCCCCCCCCCCCCCOC(=O)c1cc(O)c(O)c(O)c1 [OCTADECYL GALLATE] | > 250 µg/mL | > 250 µg/mL | > 250 µg/mL | > 250 µg/mL | > 250 µg/mL | > 250 µg/mL | > 250 µg/mL | > 250 µg/mL | 250 µg/mL (≈ 592 µM) | 250 µg/mL (≈ 592 µM) | > 250 µg/mL |
| CCCCCOC(=O)c1cc(O)c(O)c(O)c1 [PENTYL GALLATE] | > 250 µg/mL | > 250 µg/mL | > 250 µg/mL | > 250 µg/mL | > 250 µg/mL | > 250 µg/mL | > 250 µg/mL | 50 µg/mL (≈ 208 µM) | 100 µg/mL (≈ 416 µM) | 50 µg/mL (≈ 208 µM) | 50 µg/mL (≈ 208 µM) |
| CCCOC(=O)c1cc(O)c(O)c(O)c1 [PROPYL GALLATE] | > 250 µg/mL | > 250 µg/mL | > 250 µg/mL | > 250 µg/mL | > 250 µg/mL | > 250 µg/mL | > 250 µg/mL | 75 µg/mL (≈ 353 µM) | 100 µg/mL (≈ 471 µM) | 50 µg/mL (≈ 236 µM) | 100 µg/mL (≈ 471 µM) |
| Oc1cccc(O)c1O [PYROGALLOL] | 100 µg/mL (≈ 793 µM) | 100 µg/mL (≈ 793 µM) | 100 µg/mL (≈ 793 µM) | 62.5 µg/mL (≈ 496 µM) | 100 µg/mL (≈ 793 µM) | > 250 µg/mL | > 250 µg/mL | 50 µg/mL (≈ 396 µM) | 12.5 µg/mL (≈ 99.1 µM) | 25 µg/mL (≈ 198 µM) | 50 µg/mL (≈ 396 µM) |
| CN(C/C=C/C#CC(C)(C)C)Cc1cccc2ccccc12 [TERBINAFINE] |  |  |  |  |  |  |  | 0.04 µg/mL (≈ 0.137 µM) | 0.004 µg/mL (≈ 0.0137 µM) | 0.01 µg/mL (≈ 0.0343 µM) | 0.04 µg/mL (≈ 0.137 µM) |
| CCCCCCCCCCCOC(=O)c1cc(O)c(O)c(O)c1 [UNDECYL GALLATE] | 250 µg/mL (≈ 771 µM) | 200 µg/mL (≈ 616 µM) | 200 µg/mL (≈ 616 µM) | 100 µg/mL (≈ 308 µM) | > 250 µg/mL | > 250 µg/mL | > 250 µg/mL | 125 µg/mL (≈ 385 µM) |  | 125 µg/mL (≈ 385 µM) | 100 µg/mL (≈ 308 µM) |
